The series can be described thus: Stability experiment: remaining amount of metformin by HPLC after heating. In kind it is physicochemical. The following applies: below pH 3.5. As to the method:
Tasting and stability experiments on the solutions at various pH of Example 13 were carried out, in the same manner as Experiment 1. A stability experiment was carried out by measuring the remaining amount of metformin in the solutions with HPLC after heating the solutions in vials at 60 C. for 2 weeks.

Where a name gives a salt, the structure may show the parent alone.

As for `CN(C)C(=N)N=C(N)N` [Metformin hydrochloride], the stability in solution entry is recorded as “not stable”.

These data come from patent US6517870B1, “Oral formulation comprising biguanide and an organic acid” (Sumitomo Pharmaceuticals Company, Limited, priority 1998, dated 2003).
